Experimental data as given in ChEMBL document CHEMBL5725827, “2-pyridyloxy-3-ester-4-nitrile orexin receptor antagonists” (2017).

Molecular target: Orexin/Hypocretin receptor type 1 (Rattus norvegicus, UniProt P56718)
Assay: Radioligand Binding Assay: Described in Bergman et. al. Bioorg. Med. Chem. Lett. 2008, 18, 1425-1430.
Set-up: species or system Homo sapiens

Chain of Orexin/Hypocretin receptor type 1 (P56718 whole entry, looked up): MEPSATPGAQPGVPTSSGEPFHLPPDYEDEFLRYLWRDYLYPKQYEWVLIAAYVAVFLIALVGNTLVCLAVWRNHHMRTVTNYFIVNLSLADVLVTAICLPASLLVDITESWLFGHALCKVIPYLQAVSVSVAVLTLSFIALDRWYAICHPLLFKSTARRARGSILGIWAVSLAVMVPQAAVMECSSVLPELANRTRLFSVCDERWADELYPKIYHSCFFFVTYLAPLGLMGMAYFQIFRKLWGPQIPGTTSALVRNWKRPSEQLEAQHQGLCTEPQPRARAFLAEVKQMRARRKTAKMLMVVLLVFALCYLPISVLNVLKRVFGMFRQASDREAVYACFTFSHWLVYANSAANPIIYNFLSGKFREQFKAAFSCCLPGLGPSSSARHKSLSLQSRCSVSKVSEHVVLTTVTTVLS

Structure (SMILES) | Ki [nM]
COC(=O)c1c(C#N)ccnc1O[C@@H]1CC[C@@H](C)N(C(=O)c2ccc(F)cc2-n2nccn2)C1 | 175
COC(=O)c1c(C#N)ccnc1O[C@@H]1CC[C@@H](C)N(C(=O)c2cc(F)ccc2-c2nc(C)no2)C1 | 153
COC(=O)c1c(C#N)ccnc1O[C@@H]1CC[C@@H](C)N(C(=O)c2ccccc2-c2nc(C)no2)C1 | 73.8
COC(=O)c1c(C#N)ccnc1O[C@@H]1CC[C@@H](C)N(C(=O)c2c(F)cccc2-n2nccn2)C1 | 63
COC(=O)c1c(C#N)ccnc1O[C@@H]1CC[C@@H](C)N(C(=O)c2ccc(F)cc2-c2ncccn2)C1 | 75.6
COC(=O)c1c(C#N)ccnc1O[C@@H]1CC[C@@H](C)N(C(=O)c2cccc(F)c2-c2noc(C)n2)C1 | 128
COC(=O)c1c(C#N)ccnc1O[C@@H]1CC[C@@H](C)N(C(=O)c2cc(F)ccc2-c2noc(C)n2)C1 | 117
COC(=O)c1c(C#N)ccnc1O[C@@H]1CC[C@@H](C)N(C(=O)c2cc(F)ccc2-n2nccn2)C1 | 144
COC(=O)c1c(C#N)ccnc1O[C@@H]1CC[C@@H](C)N(C(=O)c2ccccc2-c2noc(C)n2)C1 | 86.6
COC(=O)c1c(C#N)ccnc1O[C@@H]1CC[C@@H](C)N(C(=O)c2c(C)cccc2-n2nccn2)C1 | 37.1
COC(=O)c1c(C#N)ccnc1O[C@@H]1CC[C@@H](C)N(C(=O)c2cc(F)ccc2-c2ncccn2)C1 | 46
COC(=O)c1c(C#N)ccnc1O[C@@H]1CC[C@@H](C)N(C(=O)c2cccc(F)c2-n2nccn2)C1 | 210
COC(=O)c1c(C#N)ccnc1O[C@@H]1CC[C@@H](C)N(C(=O)c2ccccc2-n2nccn2)C1 | 56
COC(=O)c1c(C#N)ccnc1O[C@@H]1CC[C@@H](C)N(C(=O)c2ccc(F)cc2-c2nc(C)no2)C1 | 405
COC(=O)c1c(C#N)ccnc1O[C@@H]1CC[C@@H](C)N(C(=O)c2cc(C)ccc2-n2nccn2)C1 | 25.8
